Measurements reported in patent US20230285374A1, “THERAPEUTIC METHODS USING VADADUSTAT” (Akebia Therapeutics, Inc., priority 2019, published 2023).

Test system: subjects with anemia and Hemodialysis-Dependent Chronic Kidney Disease (HD-CKD) converting from ESA
Experiment: Phase 3 randomized, double-blinded, active-controlled study in Hemodialysis-Dependent CKD (HD-CKD), Compound 1 vs darbepoetin alfa, 52 weeks
Type: in vivo, human
Text: This example describes a phase 3 randomized, double-blinded, active-controlled study to evaluate the efficacy and safety of oral Compound 1 for the maintenance treatment of anemia in subjects with Hemodialysis-Dependent Chronic Kidney Disease (HD-CKD) in approximately 300 subjects. Efficacy and safety of Compound 1 was compared with darbepoetin alfa for the maintenance treatment of anemia in subjects with DD-CKD after conversion from current ESA therapy.
Subjects deemed eligible for into the study included those who: • Be at least 20 years of age, inclusive; • Have diagnosis of Chronic Kidney Disease; • Be receiving hemodialysis or hemodialysis filtration at least three (3) times per week for ≥12 weeks before screening; • Be receiving the same formulation of ESA using the same administration route and the same dose interval (the dose interval should be the one described in the package insert for the ESA formulation) within 8 weeks prior to the first day of the screening period, using the dosages described below: Epoetin alfa and epoetin beta and kappa: ≥9,000 IU every weeks Darbepoetin alfa: ≥60 μg every weeks Epoetin beta pegol: ≥250 μg every 4 weeks • Have a mean of the most recent Hb levels at screening in the range of ≥9.5 to ≥12.0 g/dL. • Have a difference of <1.5 g/dL in Hb for the latest two tests in the screening period; • Have serum ferritin values of ≥100 ng/mL or transferrin saturation of ≥20% during the screening period; and • Have folic acid and vitamin B12 values above standard minimum values during the screening period.
Subjects deemed ineligible for inclusion in the study included those who: • Have anemia due to a cause other than CKD; • Have active bleeding or blood loss; • Have received a red blood cell transfusion; • Have uncontrolled hypertension; • Have active ocular fundus disease or cannot undergo an ocular fundus examination; • Have been diagnosed with cardiovascular disease, malignancy, or hemisiderosis;
Average Hb level at weeks 20 and 24 of the treatment period.
Hb level at each treatment visit; and
The proportion of patients within the target Hb range (above: ≥12.0 g/dL; within: 10.0-12.0 g/dL; below: <10.0 g/dL).
Safety endpoints for this study were defined as follows: • Adverse events (AEs); • Adverse drug reactions; and
Other endpoints for this study were defined as follows: • Iron-related parameters: serum ferritin, transferrin saturation (TSAT), total iron-binding capacity (TIBC), hepcidin, serum iron, and monthly dose of iron by any route of administration (oral and intravenous); and • Red blood cell indices.
Noninferiority: Compound 1 was considered noninferior to Darbepoetin alfa if the 95% confidence interval (CI) lower limit for the difference between Compound 1 and Darbepoetin alfa in the Least Squares (LS) Mean of the average Hb at weeks 20 and 24 was more than or equal to the predefined noninferiority margin of −0.75 g/dL. Difference in LS Mean refers to mixed-model repeated measures (MMRM) with an unstructured covariance matrix within patients.
Subjects were randomized 1:1 to either • Compound 1 with an initial dose of 300 mg/once daily and adjusted to 150-600 mg/once daily; or • Darbepoetin alfa (IV) initial dose is as follows:
The aim is to maintain a Hb level of 10.0-12.0 g/dL throughout the study.
Dose Adjustment Algorithm: • Increases in the dose were not allowed to occur more frequently than once every 4 weeks. Decreases in dose were allowed to occur more frequently. Frequent dose adjustments were avoided. • If the Hb rose rapidly, the dose was reduced. • If the Hb fell below 10.0 g/dL, the dose was increased. • If the Hb level exceeded 12.0 g/dL, the dose was reduced.
All subjects start with an initial dose of 300 mg/day at baseline visit. Dose levels of Compound 1 include 150, 300, 450, and 600 mg. Each subject took his/her first dose of study medication at the investigative site at the baseline visit. Thereafter, study medication was taken once daily on an outpatient basis. […]

[1] = week 52 (LOCF) compared to baseline

O=C(O)CNC(=O)c1ncc(-c2cccc(Cl)c2)cc1O [Compound 1, Vadadustat]
Deaths due to AEs (52 weeks): 2 (1.2) n (%)
deaths reported (52 weeks, assessed as not related to study drug): two
LSMean of average Hb, weeks 20 and 24 (HD-CKD patients): 10.61 g/dL
mean Hb level at week 52 (HD-CKD patients): 10.39 g/dL
Difference (VDT-DA) in LSMean of average Hb, weeks 20 and 24 (HD-CKD patients, noninferiority margin −0.75 g/dL): -0.05 g/dL
proportion of patients with Hb levels within the target range of 10.0-12.0 g/dL (baseline): 81.5%
mean MCHC level, change (baseline to week 52): significantly increased
mean MCH level, change (baseline to week 52 (LOCF)): significantly increased
mean MCV level, change (baseline to week 52 (LOCF)): significantly increased
mean RDW, change (baseline to week 52 (LOCF)): significantly decreased
mean hepcidin level, change (baseline to week 52 (LOCF)): significantly decreased
mean total iron-binding capacity (TIBC), change (baseline to week 52 (LOCF)): significantly increased
LSMean Hb levels at week 52, subgroup analysis by patient background (dose adjustment 150-600 mg/day, target range 10.0-12.0 g/dL): maintained within the target range of 10.0-12.0 g/dL irrespective of the patient backgrounds
Adverse drug reaction (human, in vivo, 52 weeks): 18 (11.1) n (%)
Cardiovascular event, cardiac failure (AE of special interest) (human, in vivo, 52 weeks): 13 (8.0) n (%)
Diarrhea (human, in vivo, 52 weeks): 25 (15.4) n (%)
Discontinuation due to AEs (human, in vivo, 52 weeks): 16 (9.9) n (%)
Dose reduction or interruption of study drug due to AEs (human, in vivo, 52 weeks): 13 (8.0) n (%)
Hyperkalemia (AE of special interest) (human, in vivo, 52 weeks): 1 (0.6) n (%)
Malignancy (AE of special interest) (human, in vivo, 52 weeks): 7 (4.3) n (%)
Nasopharyngitis (human, in vivo, 52 weeks): 74 (45.7) n (%)
Pulmonary hypertension (AE of special interest) (human, in vivo, 52 weeks): 0 (0.0) n (%)
Retinal disorder (AE of special interest) (human, in vivo, 52 weeks): 21 (13.0) n (%)
Retinal hemorrhage (human, in vivo, 52 weeks): 9.9%
Serious AEs (human, in vivo, 52 weeks): 41 (25.3) n (%)
Serious adverse drug reaction (human, in vivo, 52 weeks): 0 (0.0) n (%)
Shunt stenosis (human, in vivo, 52 weeks): 23 (14.2) n (%)
Subjects with ≥ 1 AE (human, in vivo, 52 weeks): 154 (95.1) n (%)
diarrhea (human, in vivo, 52 weeks): 15.4%
incidence of AEs (human, in vivo, 52 weeks): 95.1%
incidence of serious AEs (human, in vivo, 52 weeks): 25.3%
nasopharyngitis (human, in vivo, 52 weeks): 45.7%
shunt stenosis (human, in vivo, 52 weeks): 14.2%
patients with a rapid rise in Hb levels (>2 g/dL/4 weeks) (in vivo): No patients
proportion of patients with an Hb excursion of ≥12 g/dL (in vivo): 25.3%
proportion of patients with an Hb excursion of ≥13 g/dL (in vivo): 3.7%
proportion of patients with Hb levels within the target range of 10.0-12.0 g/dL (week 24): 75.4%
proportion of patients with Hb levels within the target range of 10.0-12.0 g/dL (week 52): 75.7%
TSAT, change [1]: no significant differences
serum ferritin, change [1]: no significant differences
patients maintained within the target Hb range (weeks 24 and 52, dose adjusted per algorithm): approximately 80%
